# In patent publication US9873709B2 (priority 2013, dated 2018):
# System: JAK1-dependent STAT6 phosphorylation downstream of IL-13 stimulation in TF-1 human erythroleukemia cells
# Assay: cells
# Conditions: TF-1, read-out: IL-13-pSTAT6 IC50
row,IC50 [nM],Structure (SMILES)
1,9.8,"CN1CCC(N(C)C(=O)c2ccc(Nc3nc4c(C5=CCN(C(=O)OCC(F)(F)F)CC5)cccn4n3)cc2)CC1 [Example 2-108, 2,2,2-trifluoroethyl 4-[2-[4-[methyl-(1-methyl-4-piperidyl)carbamoyl]anilino]-[1,2,4]triazolo[1,5-a]pyridin-8-yl]-3,6-dihydro-2H-pyridine-1-carboxylate]"
2,22.6,"CCOC(=O)N1CC=C(c2cccn3nc(Nc4ccc(C(=O)NCCC5CCCN5C)cc4)nc23)CC1 (centres unmarked) [Example 2-111, ethyl 4-[2-[4-[2-(1-methylpyrrolidin-2-yl)ethylcarbamoyl]anilino]-[1,2,4]triazolo[1,5-a]pyridin-8-yl]-3,6-dihydro-2H-pyridine-1-carboxylate]"
3,233,"CCOC(=O)N1CC=C(c2cccn3nc(Nc4ccc(C(=O)NCCN5CCNCC5)cc4)nc23)CC1 [Example 2-112, ethyl 4-[2-[4-(2-piperazin-1-ylethylcarbamoyl)anilino]-[1,2,4]triazolo[1,5-a]pyridin-8-yl]-3,6-dihydro-2H-pyridine-1-carboxylate]"
4,96.8,"CCOC(=O)N1CC=C(c2cccn3nc(Nc4ccc(C(=O)NC5CCCNC5)cc4)nc23)CC1 (centres unmarked) [Example 2-113, ethyl 4-[2-[4-(3-piperidylcarbamoyl)anilino]-[1,2,4]triazolo[1,5-a]pyridin-8-yl]-3,6-dihydro-2H-pyridine-1-carboxylate]"
5,69.2,"CCOC(=O)N1CC=C(c2cccn3nc(Nc4ccc(C(=O)NCC5CCCCN5)cc4)nc23)CC1 (centres unmarked) [Example 2-114, ethyl 4-[2-[4-(2-piperidylmethylcarbamoyl)anilino]-[1,2,4]triazolo[1,5-a]pyridin-8-yl]-3,6-dihydro-2H-pyridine-1-carboxylate]"
6,19,"CCOC(=O)N1CC=C(c2cccn3nc(Nc4ccc(C(=O)N5CC(C(=O)N(C)C)C5)cc4)nc23)CC1 [Example 2-115, ethyl 4-[2-[4-[3-(dimethylcarbamoyl)azetidine-1-carbonyl]anilino]-[1,2,4]triazolo[1,5-a]pyridin-8-yl]-3,6-dihydro-2H-pyridine-1-carboxylate]"
7,23.9,"CCOC(=O)N1CC=C(c2cccn3nc(Nc4ccc(C(=O)N(C)CCc5ccncc5)cc4)nc23)CC1 [Example 2-119, ethyl 4-[2-[4-[methyl-[2-(4-pyridyl)ethyl]carbamoyl]anilino]-[1,2,4]triazolo[1,5-a]pyridin-8-yl]-3,6-dihydro-2H-pyridine-1-carboxylate]"
8,48.8,"CCOC(=O)N1CC=C(c2cccn3nc(Nc4ccc(C(=O)N5CC6CN(C)CC(C5)O6)cc4)nc23)CC1 [Example 2-123, ethyl 4-[2-[4-(7-methyl-9-oxa-3,7-diazabicyclo[3.3.1]nonane-3-carbonyl)anilino]-[1,2,4]triazolo[1,5-a]pyridin-8-yl]-3,6-dihydro-2H-pyridine-1-carboxylate]"
9,38.5,"CCOC(=O)N1CC=C(c2cccn3nc(Nc4ccc(C(=O)NCc5cc(C)ccn5)cc4)nc23)CC1 [Example 2-124, ethyl 4-[2-[4-[(4-methyl-2-pyridyl)methylcarbamoyl]anilino]-[1,2,4]triazolo[1,5-a]pyridin-8-yl]-3,6-dihydro-2H-pyridine-1-carboxylate]"
10,226,"CCOC(=O)N1CC=C(c2cccn3nc(Nc4ccc(C(=O)N5CCC(CN)C5)cc4)nc23)CC1 (centres unmarked) [Example 2-130, ethyl 4-[2-[4-[3-(aminomethyl)pyrrolidine-1-carbonyl]anilino]-[1,2,4]triazolo[1,5-a]pyridin-8-yl]-3,6-dihydro-2H-pyridine-1-carboxylate]"
11,163,"O=C(CCC(F)(F)F)N1CC=C(c2cccn3nc(Nc4ccc(C(=O)N5CCC6(CCNC6)CC5)cc4)nc23)CC1 [Example 2-136, 1-[4-[2-[4-(2,8-diazaspiro[4.5]decane-8-carbonyl)anilino]-[1,2,4]triazolo[1,5-a]pyridin-8-yl]-3,6-dihydro-2H-pyridin-1-yl]-4,4,4-trifluoro-butan-1-one]"
12,78.8,"O=C(NC1CCCNC1)c1ccc(Nc2nc3c(C4=CCN(C(=O)CCC(F)(F)F)CC4)cccn3n2)cc1 (centres unmarked) [Example 2-137, N-(3-piperidyl)-4-[[8-[1-(4,4,4-trifluorobutanoyl)-3,6-dihydro-2H-pyridin-4-yl]-[1,2,4]triazolo[1,5-a]pyridin-2-yl]amino]benzamide]"
13,61.9,"O=C(N[C@H]1CCCNC1)c1ccc(Nc2nc3c(C4=CCN(C(=O)CCC(F)(F)F)CC4)cccn3n2)cc1 [Example 2-138, N-[(3S)-3-piperidyl]-4-[[8-[1-(4,4,4-trifluorobutanoyl)-3,6-dihydro-2H-pyridin-4-yl]-[1,2,4]triazolo[1,5-a]pyridin-2-yl]amino]benzamide]"
14,358,"O=C(CCC(F)(F)F)N1CC=C(c2cccn3nc(Nc4ccc(C(=O)N5CCO[C@@H]6CNC[C@@H]65)cc4)nc23)CC1 [Example 2-139, 1-[4-[2-[4-[(4aS,7aR)-3,4a,5,6,7,7a-hexahydro-2H-pyrrolo[3,4-b][1,4]oxazine-4-carbonyl]anilino]-[1,2,4]triazolo[1,5-a]pyridin-8-yl]-3,6-dihydro-2H-pyridin-1-yl]-4,4,4-trifluoro-butane-1-one]"
15,6.6,"N#CCCN1CCN(C(=O)c2ccc(Nc3nc4c(C5=CCN(C(=O)CCC(F)(F)F)CC5)cccn4n3)cc2)CC1 [Example 2-142, 3-[4-[4-[[8-[1-(4,4,4-trifluorobutanoyl)-3,6-dihydro-2H-pyridin-4-yl]-[1,2,4]triazolo[1,5-a]pyridin-2-yl]amino]benzoyl]piperazin-1-yl]propanenitrile]"
16,7.9,"Cc1ccc(C2CCCN2C(=O)c2ccc(Nc3nc4c(C5=CCN(C(=O)CCC(F)(F)F)CC5)cccn4n3)cc2)nc1 (centres unmarked) [Example 2-143, 4,4,4-trifluoro-1-[4-[2-[4-[2-(5-methyl-2-pyridyl)pyrrolidine-1-carbonyl]anilino]-[1,2,4]triazolo[1,5-a]pyridin-8-yl]-3,6-dihydro-2H-pyridin-1-yl]butan-1-one]"
17,187,"CN1CCN(C(=O)c2ccc(Nc3nc4c(C5=CCN(C(=O)CCC(F)(F)F)CC5)cccn4n3)cc2)CC(CO)C1 (centres unmarked) [Example 2-144, 4,4,4-trifIuoro-1-[4-[2-[4-[6-(hydroxymethyl)-4-methyl-1,4-diazepane-1-carbonyl]anilino]-[1,2,4]triazolo[1,5-a]pyridin-8-yl]-3,6-dihydro-2H-pyridin-1-yl]butan-1-one]"
18,6.4,"O=C(CCC(F)(F)F)N1CC=C(c2cccn3nc(Nc4ccc(C(=O)N5CCCC5c5cccnc5)cc4)nc23)CC1 (centres unmarked) [Example 2-145, 4,4,4-trifluoro-1-[4-[2-[4-[2-(3-pyridyl)pyrrolidine-1-carbonyl]anilino]-[1,2,4]triazolo[1,5-a]pyridin-8-yl]-3,6-dihydro-2H-pyridin-1-yl]butan-1-one]"
19,6.5,"O=C(CCC(F)(F)F)N1CC=C(c2cccn3nc(Nc4ccc(C(=O)N5Cc6cccnc6C5)cc4)nc23)CC1 [Example 2-146, 1-[4-[2-[4-(5,7-dihydropyrrolo[3,4-b]pyridine-6-carbonyl)anilino]-[1,2,4]triazolo[1,5-a]pyridin-8-yl]-3,6-dihydro-2H-pyridin-1-yl]-4,4,4-trifluoro-butan-1-one]"
20,6.6,"CC1CCN(CCNC(=O)c2ccc(Nc3nc4c(C5=CCN(C(=O)CCC(F)(F)F)CC5)cccn4n3)cc2)CC1 [Example 2-147, N-[2-(4-methyl-1-piperidyl)ethyl]-4-[[8-[1-(4,4,4-trifluorobutanoyl)-3,6-dihydro-2H-pyridin-4-yl]-[1,2,4]triazolo[1,5-a]pyridin-2-yl]amino]benzamide]"
